Values of other authors, collected in paper PMC9633261, “Preclinical evaluation and first in human study of Al^18F radiolabeled ODAP-urea-based PSMA targeting ligand for PET imaging of prostate cancer” (Frontiers in Oncology, 2022).
Read-outs that look alike come from different tables or passages of the source.

For `O=C(O)CC[C@H](NC(=O)N[C@@H](CCCCNC(=O)c1ccc([18F])nc1)C(=O)O)C(=O)O` [^18F-DCFPyL], the absorbed dose kidneys (ref [39]) is given as 0.0945 mGy/MBq.

For `O=C([O-])CN(CCN(CC(=O)[O-])Cc1cc(CCC(=O)NCCCCCC(=O)NCCCC[C@H](NC(=O)N[C@@H](CCC(=O)O)C(=O)O)C(=O)O)ccc1[O-])Cc1cc(CCC(=O)O)ccc1[O-].[68Ga+3].[OH3+]` [^68Ga-PSMA-11], the absorbed dose kidneys (reported by Afshar-Oromieh et al. ref [37]) is given as 0.262 mGy/MBq and the absorbed dose kidneys (reported by Pfob et al. ref [38]) is given as 0.121 mGy/MBq.
